SMILES strings stand for the structures.

For the test, the target named is T1, hKv3.1b (Homo sapiens, UniProt P48547).
T1 construct: expressed in transfected cells
T1 sequence (P48547 1-585 isoform P48547-2): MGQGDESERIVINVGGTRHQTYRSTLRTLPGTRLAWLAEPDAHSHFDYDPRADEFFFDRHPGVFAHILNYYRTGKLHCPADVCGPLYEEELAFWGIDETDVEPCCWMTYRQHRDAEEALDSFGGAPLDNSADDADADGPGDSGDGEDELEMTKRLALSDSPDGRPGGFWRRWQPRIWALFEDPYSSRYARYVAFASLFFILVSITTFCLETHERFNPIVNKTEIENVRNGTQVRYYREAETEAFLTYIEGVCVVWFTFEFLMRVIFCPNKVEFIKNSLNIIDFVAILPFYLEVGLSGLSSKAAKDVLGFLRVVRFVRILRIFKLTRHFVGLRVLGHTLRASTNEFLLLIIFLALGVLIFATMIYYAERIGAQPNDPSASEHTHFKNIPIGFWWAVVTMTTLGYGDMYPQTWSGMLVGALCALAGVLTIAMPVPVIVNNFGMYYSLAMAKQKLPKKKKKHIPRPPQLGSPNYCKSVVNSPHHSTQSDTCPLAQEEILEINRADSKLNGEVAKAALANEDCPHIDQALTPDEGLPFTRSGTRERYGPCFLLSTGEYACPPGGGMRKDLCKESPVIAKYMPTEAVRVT
Briefly: Automated whole-cell patch-clamp (QPatch-16x) on HEK-293 cells stably expressing hKv3.1b: shift of voltage threshold for channel activation. Type of test: cell-based. The note with it: HEK-293 hKv3.1b; for ECdelta5mV: concentration needed to shift the threshold 5 mV, read out from fitted concentration response curve; for Max Delta threshold: maximum absolute shift of activation threshold to more hyperpolarized potentials at the tested concentrations (0.37, 1.11, 3.33, 10, 30 μM). The protocol:
HEK-293 cells stably expressing hKv3.1b was used for the experiments. Cells were cultured in DMEM medium supplemented with 10% Fetal Bovine Serum, 100 ug/mL Geneticidin and 100 u/mL Penicillin/Streptomycin (all from Gibco). Cells were grown to 80-90% confluency at 37° C. and 5% CO2. On the day of the experiment the cells were detached from the tissue culture flasks by Detachin and resuspended in serum free medium containing 25 mM HEPES and transferred to the cell hotel of the QPatch. The cells were used for experiments 0-5 hours after detachment.
Patch-clamp recordings were performed using the automated recording system QPatch-16x (Sophion Bioscience, Denmark). Cells were centrifuged, SFM removed and the cells were resuspended in extracellular buffer containing (in mM): 145 NaCl, 4 KCl, 1 MgCl2, 2 CaCl2, 10 HEPES and 10 glucose (added fresh on the day of experiment); pH 7.4 adjusted with NaOH, 305 mOsm adjusted with sucrose.
Single cell whole-cell recordings were carried out using an intracellular solution containing (in mM): 120 KCl, 32.25/10 KOH/EGTA, 5.374 CaCl2, 1.75 MgCl2, 10 HEPES, 4 Na2ATP (added fresh on the day), pH 7.2 adjusted with KOH, […] adjusted with sucrose. Cell membrane potentials were held at −80 mV and currents were evoked by voltage steps (200 ms duration) from −70 mV to +10 mV (in 10 mV increments).
Leak subtraction protocol was applied at −33% of the sweep amplitude, and serial resistance values were constantly monitored.
Any cell where serial resistance exceeded 25 MOhm, membrane resistance less than 200 MOhm or current size at −10 mV less than 200 pA was eliminated from the subsequent analysis.
Data analysis was performed using Sophion's QPatch assay software in combination with Microsoft Excel™ (Redmond, Wash., USA).
Current voltage relationships were plotted from the peak current at the individual voltage steps normalized to the vehicle addition at 10 mV. The voltage threshold for channel activation was defined as 5% activation of the peak current at 10 mV in presence of vehicle. The activity of the compounds was described as the ability to shift this current voltage relationship to more hyperpolarized potentials and is given as the maximum absolute shift possible at the tested concentrations (0.37, 1.11, 3.33, 10, 30 μM). Concentration response curves were plotted from the threshold shift at the individual concentrations and were fitted excel fit model 205 sigmodal dose-response model (fit=A+((B−A)/1+((C/x)^D)))), where A is the minimum value, B the maximum value, C the EC50 value and D the slope of the curve. The concentration needed to shift the threshold 5 mV was readout from this curve (ECdelta 5 mV).
Background: Patch clamp records ionic current or voltage across a cell membrane.

As to `COc1ccc(S(=O)(=O)n2ccc(C(=O)NCc3cocn3)n2)cc1` [Compound 12, 1-(4-methoxybenzene-1-sulfonyl)-N-[(1,3-oxazol-4-yl)methyl]-1H-pyrazole-3-carboxamide], the ECdelta5mV came out at 3800 nM and the “Max Delta threshold” value is 16 mV.

With `Cc1cnc(CNC(=O)c2ccn(S(=O)(=O)c3ccc(C4CC4)cc3)n2)cn1` [Compound 79, 1-(4-cyclopropylphenyl)sulfonyl-N-[(5-methylpyrazin-2-yl)methyl]pyrazole-3-carboxamide], the ECdelta5mV came out at 990 nM and the “Max Delta threshold” value is 32 mV.

Turning to `Cc1cc(CNC(=O)c2ccn(S(=O)(=O)c3ccccc3C)n2)on1` [Compound 29, 1-(2-methylbenzene-1-sulfonyl)-N-[(3-methyl-1,2-oxazol-5-yl)methyl]-1H-pyrazole-3-carboxamide], the ECdelta5mV is recorded as 3100 nM and the “Max Delta threshold” value was determined as 22 mV.

For the molecule `Cc1cnc(CNC(=O)c2ccn(S(=O)(=O)c3ccc(C(F)F)cc3)n2)cn1` [Compound 71, 1-[4-(difluoromethyl)phenyl]sulfonyl-N-[(5-methylpyrazin-2-yl)methyl]pyrazole-3-carboxamide], the ECdelta5mV was 3500 nM and the “Max Delta threshold” value worked out at 27 mV.

As to `COc1ccc(S(=O)(=O)n2ccc(C(=O)NCc3cnc(C)cn3)n2)cc1` [Compound 5, 1-(4-methoxybenzene-1-sulfonyl)-N-[(5-methylpyrazin-2-yl)methyl]-1H-pyrazole-3-carboxamide], the ECdelta5mV worked out at 1800 nM and the “Max Delta threshold” value is recorded as 26 mV.

As for `Cc1ccc(S(=O)(=O)n2ccc(C(=O)NCc3ncc(C)o3)n2)cc1` [Compound 30, 1-(4-methylbenzene-1-sulfonyl)-N-[(5-methyl-1,3-oxazol-2-yl)methyl]-1H-pyrazole-3-carboxamide], the ECdelta5mV came to 3400 nM and the “Max Delta threshold” value is 15 mV.

`COc1ccc(S(=O)(=O)n2ccc(C(=O)NCc3ccn(C)n3)n2)cc1` [Compound 44, 1-(4-methoxybenzene-1-sulfonyl)-N-[(1-methyl-1H-pyrazol-3-yl)methyl]-1H-pyrazole-3-carboxamide]: the ECdelta5mV amounted to 1400 nM and the “Max Delta threshold” value came to 25 mV.

With `COc1ccc(S(=O)(=O)n2ccc(C(=O)NCc3ccno3)n2)cc1` [Compound 10, 1-(4-methoxybenzene-1-sulfonyl)-N-[(1,2-oxazol-5-yl)methyl]-1H-pyrazole-3-carboxamide], the ECdelta5mV is given as 3400 nM and the “Max Delta threshold” value amounted to 17 mV.

For the molecule `COc1ccc(S(=O)(=O)n2ccc(C(=O)NCc3cc(C)no3)n2)cc1` [Compound 38, 1-(4-methoxybenzene-1-sulfonyl)-N-[(3-methyl-1,2-oxazol-5-yl)methyl]-1H-pyrazole-3-carboxamide], the ECdelta5mV worked out at 1100 nM and the “Max Delta threshold” value is given as 21 mV.

In the case of `Cc1ccc(S(=O)(=O)n2ccc(C(=O)NCc3nc(C)cs3)n2)cc1` [Compound 61, 1-(4-methylbenzene-1-sulfonyl)-N-[(4-methyl-1,3-thiazol-2-yl)methyl]-1H-pyrazole-3-carboxamide], the ECdelta5mV turned out to be 2000 nM and the “Max Delta threshold” value turned out to be 19 mV.

With `COc1ccc(S(=O)(=O)n2ccc(C(=O)NCc3cncnc3)n2)cc1` [Compound 7, 1-(4-methoxybenzene-1-sulfonyl)-N-[(pyrimidin-5-yl)methyl]-1H-pyrazole-3-carboxamide], the ECdelta5mV turned out to be 2900 nM and the “Max Delta threshold” value is 18 mV.

With `Cc1cnc(CNC(=O)c2ccn(S(=O)(=O)c3cc(C)c(F)c(C)c3)n2)cn1` [Compound 81, 1-(4-fluoro-3,5-dimethyl-phenyl)sulfonyl-N-[(5-methylpyrazin-2-yl)methyl]pyrazole-3-carboxamide], the ECdelta5mV is reported as 3000 nM and the “Max Delta threshold” value stood at 17 mV.

For the molecule `COc1ccc(S(=O)(=O)n2ccc(C(=O)NCc3cnc(C)nc3)n2)cc1` [Compound 11, 1-(4-methoxybenzene-1-sulfonyl)-N-[(2-methylpyrimidin-5-yl)methyl]-1H-pyrazole-3-carboxamide], the ECdelta5mV was determined as 2400 nM and the “Max Delta threshold” value worked out at 29 mV.

Take `Cc1ccc(S(=O)(=O)n2ccc(C(=O)NCc3cnc(C)cn3)n2)c(C)c1` [Compound 77, 1-(2,4-dimethylphenyl)sulfonyl-N-[(5-methylpyrazin-2-yl)methyl]pyrazole-3-carboxamide]: the ECdelta5mV amounted to 1100 nM and the “Max Delta threshold” value was 29 mV.

As for `COc1ccc(S(=O)(=O)n2ccc(C(=O)NCc3ccc(C)cn3)n2)cc1` [Compound 40, 1-(4-methoxybenzene-1-sulfonyl)-N-[(5-methylpyridin-2-yl)methyl]-1H-pyrazole-3-carboxamide], the ECdelta5mV came out at 2000 nM and the “Max Delta threshold” value was 21 mV.

As to `Cc1ccc(S(=O)(=O)n2ccc(C(=O)NCc3ccno3)n2)cc1` [Compound 55, 1-(4-methylbenzene-1-sulfonyl)-N-[(1,2-oxazol-5-yl)methyl]-1H-pyrazole-3-carboxamide], the ECdelta5mV was 1800 nM and the “Max Delta threshold” value turned out to be 20 mV.

Consider `COc1ccc(S(=O)(=O)n2ccc(C(=O)NCc3cnccn3)n2)c(C)c1` [Compound 3, 1-(4-methoxy-2-methylbenzene-1-sulfonyl)-N-[(pyrazin-2-yl)methyl]-1H-pyrazole-3-carboxamide], for which the ECdelta5mV was found to be 1600 nM and the “Max Delta threshold” value came out at 25 mV.

Regarding `Cc1ccc(S(=O)(=O)n2ccc(C(=O)NCc3cnc(C)cn3)n2)c(F)c1` [Compound 80, 1-(2-fluoro-4-methyl-phenyl)sulfonyl-N-[(5-methylpyrazin-2-yl)methyl]pyrazole-3-carboxamide], the ECdelta5mV worked out at 1500 nM and the “Max Delta threshold” value was determined as 31 mV.

Take `Cc1ccc(S(=O)(=O)n2ccc(C(=O)NCc3cn(C)nn3)n2)cc1` [Compound 46, 1-(4-methylbenzene-1-sulfonyl)-N-[(1-methyl-1H-1,2,3-triazol-4-yl)methyl]-1H-pyrazole-3-carboxamide]: the ECdelta5mV was 1800 nM and the “Max Delta threshold” value was found to be 22 mV.

Regarding `Cc1ccccc1S(=O)(=O)n1ccc(C(=O)NCc2cnn(C)c2)n1` [Compound 28, 1-(2-methylbenzene-1-sulfonyl)-N-[(1-methyl-1H-pyrazol-4-yl)methyl]-1H-pyrazole-3-carboxamide], the ECdelta5mV was 2400 nM and the “Max Delta threshold” value worked out at 22 mV.

With `Cc1ccc(S(=O)(=O)n2ccc(C(=O)NCc3cscn3)n2)cc1` [Compound 52, 1-(4-methylbenzene-1-sulfonyl)-N-[(1,3-thiazol-4-yl)methyl]-1H-pyrazole-3-carboxamide], the ECdelta5mV is listed as 1500 nM and the “Max Delta threshold” value came out at 16 mV.

On to `Cc1cc(CNC(=O)c2ccn(S(=O)(=O)c3ccc(F)cc3)n2)on1` [Compound 31, 1-(4-fluorobenzene-1-sulfonyl)-N-[(3-methyl-1,2-oxazol-5-yl)methyl]-1H-pyrazole-3-carboxamide], for which the ECdelta5mV stood at 4100 nM and the “Max Delta threshold” value is recorded as 13 mV.

Consider `Cc1ccccc1S(=O)(=O)n1ccc(C(=O)NCc2ccn(C)n2)n1` [Compound 26, 1-(2-methylbenzene-1-sulfonyl)-N-[(1-methyl-1H-pyrazol-3-yl)methyl]-1H-pyrazole-3-carboxamide], for which the ECdelta5mV is 2900 nM and the “Max Delta threshold” value is reported as 16 mV.

(Values after US20220220095A1, “N-((HETEROARYL)METHYL)-1-TOSYL-1H-PYRAZOLE-3-CARBOXAMIDE DERIVATIVES AS Kv3 POTASSIUM CHANNEL ACTIVATORS FOR TREATING NEUROLOGICAL AND [sequence] DISORDERS” (H. Lundbeck A/S, priority 2019, published 2022).)
